From US12178210B2, “Insect attractant and killing system” (priority 2020, dated 2024)
Read-outs that look alike come from different tables or passages of the source.

Settings: field, Valencia
Description: Every two weeks samples of the attractant were weighed to determine the mass. From the mass, the mass that had been released, the mass remaining, and the amount of ammonia released was determined.

## N.N.O=C(O)O [Ammonium Carbonate, ammonium carbonate]
Week 0, ave. temp. 25.10 ° C
  Avg. Mass Loss: 0.00 g
  Avg. Mass Remaining: 14.94 g
  Avg. Release Rate: 0.000 g/day
Week 2, ave. temp. 26.30 ° C
  Avg. Mass Loss: 0.48 g
  Avg. Mass Remaining: 14.46 g
  Avg. Release Rate: 0.035 g/day
Week 4, ave. temp. 26.90 ° C
  Avg. Mass Loss: 1.57 g
  Avg. Mass Remaining: 13.37 g
  Avg. Release Rate: 0.078 g/day
Week 6, ave. temp. 27.10 ° C
  Avg. Mass Loss: 2.73 g
  Avg. Mass Remaining: 12.21 g
  Avg. Release Rate: 0.083 g/day
Week 8, ave. temp. 24.40 ° C
  Avg. Mass Loss: 3.77 g
  Avg. Mass Remaining: 11.17 g
  Avg. Release Rate: 0.074 g/day
Week 10, ave. temp. 22.60 ° C
  Avg. Mass Loss: 4.09 g
  Avg. Mass Remaining: 10.85 g
  Avg. Release Rate: 0.023 g/day
Week 12, ave. temp. 21.50 ° C
  Avg. Mass Loss: 4.66 g
  Avg. Mass Remaining: 10.28 g
  Avg. Release Rate: 0.041 g/day
Week 14, ave. temp. 19.90 ° C
  Avg. Mass Loss: 4.93 g
  Avg. Mass Remaining: 10.01 g
  Avg. Release Rate: 0.019 g/day
Week 16, ave. temp. 17.70 ° C
  Avg. Mass Loss: 5.11 g
  Avg. Mass Remaining: 9.83 g
  Avg. Release Rate: 0.013 g/day
Week 18, ave. temp. 15.30 ° C
  Avg. Mass Loss: 5.30 g
  Avg. Mass Remaining: 9.64 g
  Avg. Release Rate: 0.013 g/day
Week 20, ave. temp. 14.40 ° C
  Avg. Mass Loss: 5.59 g
  Avg. Mass Remaining: 9.35 g
  Avg. Release Rate: 0.021 g/day
Week 24, ave. temp. 11.70 ° C
  Avg. Mass Loss: 5.86 g
  Avg. Mass Remaining: 9.08 g
  Avg. Release Rate: 0.009 g/day
Week 28, ave. temp. […] C
  Avg. Mass Loss: 6.20 g
  Avg. Mass Remaining: 8.74 g
  Avg. Release Rate: 0.012 g/day
Week 31, ave. temp. […] C
  Avg. Mass Loss: 6.80 g
  Avg. Mass Remaining: 8.14 g
  Avg. Release Rate: 0.028 g/day
Week 35, ave. temp. 12.60 ° C
  Avg. Mass Loss: 7.29 g
  Avg. Mass Remaining: 7.65 g
  Avg. Release Rate: 0.018 g/day
Week 38, ave. temp. 13.50 ° C
  Avg. Mass Loss: 7.56 g
  Avg. Mass Remaining: 7.38 g
  Avg. Release Rate: 0.013 g/day
Week 39, ave. temp. 13.30 ° C
  Avg. Mass Loss: 7.80 g
  Avg. Mass Remaining: 7.14 g
  Avg. Release Rate: 0.033 g/day
Week 41, ave. temp. 15.80 ° C
  Avg. Mass Loss: 8.12 g
  Avg. Mass Remaining: 6.82 g
  Avg. Release Rate: 0.023 g/day
Week 43, ave. temp. 16.50 ° C
  Avg. Mass Loss: 8.44 g
  Avg. Mass Remaining: 6.50 g
  Avg. Release Rate: 0.023 g/day
Week 46, ave. temp. 18.10 ° C
  Avg. Mass Loss: 9.17 g
  Avg. Mass Remaining: 5.77 g
  Avg. Release Rate: 0.035 g/day
